From paper PMC7248923, “A New Oleanane Type Saponin from the Aerial Parts of Nigella sativa with Anti-Oxidant and Anti-Diabetic Potential” (Molecules, 2020) come the findings set out here.

Test [1] can be described thus: DPPH radical scavenging assay. The note with it: mean of three determinations ± SD; Nd = not detected; 30 min at 37 °C, 517 nm. The protocol:
The DPPH activity of the isolated compounds and extracts were evaluated as described previously. Twenty μ L of samples having different concentrations of the extract (100, 500, 250, and 125 µg/mL) and isolated compounds (100, 75, 50, and 25 μ M) keeping the total volume of solution at 180 μL (0.1 mM) solution, was added in 96 well plates and incubated for 30 min at 37 °C. The observation was measured at 517nm. Each observation was done in triplicate. Ascorbic acid and Trolox were used as positive controls, while methanol was used as a negative control. Inhibition % was calculated. Data were presented as the mean ± S.D.
In general terms: DPPH is a stable violet radical that fades when it is reduced.

Test [2] is described as follows: ABTS radical scavenging assay. The note with it: mean of three determinations ± SD; Nd = not detected; 732 nm. The protocol: ABTS inhibition of the isolated compounds and extracts were evaluated as described previously. Stock solution was prepared by mixing an equal volume of 7.4 mM of ABTS and 2.6 mM of potassium persulfate and kept for 24 hours before diluting with methanol. Later the solution was diluted with methanol till the absorbance at 732 nm came within the range of 0.8–1.2. To 50 µL of sample solutions of different concentration (250, 125, 100, 50 μM ) 950 μL of ABTS* was added. Absorbance was measured at 732 nm by a spectrophotometer. Ascorbic acid and Trolox, and methanol were used as a positive and negative controls, respectively. All observations were done in triplicate. Percentage inhibition was calculated from the observations. Data were presented as mean ± S.D.

Another test deals with T1, human recombinant PTP1B (Homo sapiens, UniProt P18031).
T1 construct: purchased Sigma-Aldrich
T1 sequence (P18031 1-435): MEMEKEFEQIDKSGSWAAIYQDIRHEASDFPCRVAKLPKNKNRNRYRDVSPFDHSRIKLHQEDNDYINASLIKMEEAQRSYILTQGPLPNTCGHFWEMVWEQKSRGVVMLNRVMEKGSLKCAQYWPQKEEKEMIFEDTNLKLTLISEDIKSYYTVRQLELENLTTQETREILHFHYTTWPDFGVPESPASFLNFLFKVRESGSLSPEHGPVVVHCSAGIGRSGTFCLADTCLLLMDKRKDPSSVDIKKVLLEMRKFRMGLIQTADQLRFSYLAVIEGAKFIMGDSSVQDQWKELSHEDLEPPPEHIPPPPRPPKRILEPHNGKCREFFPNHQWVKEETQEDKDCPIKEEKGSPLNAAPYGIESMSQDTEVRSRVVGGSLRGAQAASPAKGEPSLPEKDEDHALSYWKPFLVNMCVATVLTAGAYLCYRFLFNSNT
Nature of the test: PTP1B inhibitory assay (pNPP substrate). The note with it: mean of three determinations ± SD, Nd = not detected, pH 6, 37 °C. The format is biochemical.

Experimental for human recombinant PTP1B: The inhibitory activity of the isolated compounds against human recombinant PTP1B was evaluated using p-nitrophenyl phosphate (pNPP) as a substrate. Firstly, 2 mM pNPP and PTP1B were mixed with 50 mM citrate buffer of pH 6 and 0.1 mM NaCl, 1 mM EDTA, and 1 mM DTT with or without sample keeping the final volume of the solution at 110 μL and placing them in a 96 wells plate. […] The plate was first pre-incubated for 10 min at 37 °C, and then 50 μL of pNPP in buffer was added. The plate was again incubated for 30 min at 37 °C. After that, 10 μL of 10M NaOH was added dropwise to stop the reaction. […] The inhibition percentage was calculated with the formula [( Ac−As/Ac )] × 100%, where Ac is the absorbance of control while As is the absorbance of the sample. […] Data were presented as mean ± S.D [35].

As usually defined, the IC50 is the concentration that inhibits the measured activity by half. In the case of `O=C1O[C@H]([C@@H](O)CO)C(O)=C1O` [Ascorbic acid, reference compound], the IC50 is 51.7 ± 0.1 µM in test [1] and 82.9 ± 2 µM in test [2].

As for `COc1ccc2c(c1O)-c1c(O)c(OC)cc3c1[C@H](C2)[N+](C)(C)CC3` [Compound 5, magnoflorine], the half-maximal inhibitory concentration (IC50) came to 71 ± 0.5 µM in test [1] and 139.2 ± 0.5 µM in test [2].

As to `O=c1c(OC2OC(CO)C(O)C(O)C2OC2OC(CO)C(O)C(O)C2OC2OC(CO)C(O)C(O)C2O)c(-c2ccc(O)c(O)c2)oc2cc(O)cc(O)c12` (stereo not shown) [Compound 8, quercetin sphorotrioside], the figures for the 50% inhibitory concentration (IC50) in test [1] and in test [2] were 35.5 ± 0.5 µM and 98.8 ± 0.5 µM, respectively.

As to `O=c1c(OC2OC(CO)C(O)C(O)C2O)c(-c2ccc(O)cc2)oc2cc(OC3OC(CO)C(O)C(O)C3O)cc(O)c12` (stereo not shown) [Compound 9, kaempferol-3,7-diglucoside], the 50% inhibitory concentration (IC50) in test [1] came out at 198 ± 2.7 µM; in test [2] it was 247 ± 2.7 µM.

With `C[C@@H]1O[C@@H](OC[C@H]2O[C@@H](Oc3c(-c4ccc(O)c(O)c4)oc4cc(O)cc(O)c4c3=O)[C@H](O)[C@@H](O)[C@@H]2O)[C@H](O)[C@H](O)[C@H]1O` [Compound 11, rutin], the IC50 worked out at 39.6 ± 0.5 µM in test [1] and 129 ± 0.5 µM in test [2].

For `CC1OC(OC2C(OC3CCC4(C)C(CCC5(C)C4CC=C4C6CC(C)(C)CCC6(C(=O)O)CCC45C)C3(C)CO)OCC(O)C2O)C(O)C(O)C1O` [Compound 12, 3-O-[α-L-rhamnopyranosyl-(1→2)-α-L-arabinopyranpsyl]hederagenin], on human recombinant PTP1B, the IC50 was 91.3 ± 2.5 µM.

On to `Cc1c(C)c2c(c(C)c1O)CCC(C)(C(=O)O)O2` (stereo not shown) [Trolox, reference compound], for which the concentration for half-maximal inhibition (IC50) was found to be 59.4 ± 0.9 µM in test [1] and 96.2 ± 1.5 µM in test [2].
